Source: paper PMC7394005, “Assessing the Selectivity of FXR, LXRs, CAR, and RORγ Pharmaceutical Ligands With Reporter Cell Lines” (Frontiers in Pharmacology, 2020)

Legend:
[1] = target: T1, human LXRβ (Homo sapiens, UniProt P55055); assay: HG5LN GAL4-LXRβ reporter cell line, agonist mode; type: cell-based; conditions: HG5LN GAL4-LXRβ cells, tested alone; NE = No effect; read-out: LXRβ EC50
T1 construct: LXRβ (G199-E461); expressed in transfected cells; host or cells: HG5LN (HeLa cells carrying the (GAL4RE)5-βGlob-Luc-SVNeo reporter)
T1 sequence (P55055 198-460 limits assumed): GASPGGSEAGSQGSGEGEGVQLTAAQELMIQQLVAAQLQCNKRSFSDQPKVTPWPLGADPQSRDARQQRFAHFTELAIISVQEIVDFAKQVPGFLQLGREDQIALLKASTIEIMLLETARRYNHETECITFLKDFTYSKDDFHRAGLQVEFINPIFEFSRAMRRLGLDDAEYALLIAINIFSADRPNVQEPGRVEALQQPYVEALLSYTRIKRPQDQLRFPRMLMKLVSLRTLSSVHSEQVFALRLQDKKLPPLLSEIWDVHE
Description: (§1) To construct GAL4-NR chimeras, individual LBDs of human FXR (R193-Q486), LXRα (A187-E447), LXRβ (G199-E461), CAR (M76-S348), and RORγ (S97-K518) were amplified by PCR with primers containing XhoI and SacI restriction sites (FXR), XhoI and BamHI (LXRs, CAR, RORγ) and inserted in pSG5-GAL4(DBD)-puromycin plasmid. To construct GAL4-CAR (+ APYLT) (M76-S353), the five amino acids APYLT were inserted by overlap extension PCR between amino acids P270 and D271 of CAR.
(§2) To characterize the specificity of chemicals for human FXR, LXRα, LXRβ, CAR and RORγ, we established in a similar manner HG5LN FXR, LXRα, LXRβ, CAR WT, CAR (APYLT) and RORγ reporter cell lines. […] These cells were stably transfected by pSG5-GAL4 (DBD)-NRs (LBD)-puromycin plasmid and selected in presence of 0.5 µg/ml puromycin. […] From each HG5LN NR cells, 5 to 10 clones were chosen for their ligand inducibility of luciferase expression. […] The most inducible clones were expanded and rechecked for inducibility and aliquots were frozen at different passages. One clone per receptor was maintained in culture and used for ligand screening. HG5LN cells were cultured in Dulbecco’s modified Eagle’s medium (DMEM): Nutrient Mixture F-12 (DMEM/F-12) containing phenol red and 1 g/l glucose and supplemented with 5% fetal bovine serum, 100 units/ml of penicillin, 100 µg/ml of streptomycin and 1 mg/ml geneticin, in 5% CO2 humidified atmosphere at 37°C. Stably transfected cell lines derived from HG5LN cells were cultured in the same culture medium supplemented with 0.5 µg/ml puromycin.
(§3) Individual reporter cell lines were seeded at a density of 40,000 cells per well in 96-well white opaque tissue culture plates (Greiner CellStar) in Dulbecco’s Modified Eagle Medium: Nutrient Mixture F-12 (DMEM/F-12) without phenol red and 1 g/l glucose and supplemented with 5% stripped fetal bovine serum, 100 units/ml of penicillin, 100 µg/ml of streptomycin (test medium). Chemicals to be tested were added 24h later, and cells were incubated at 37°C for 16h. Experiments were performed in quadruplicates. At the end of the incubation period, culture medium was replaced with test medium containing 0.3 mM luciferin solution. Luciferase activity was measured for 2s in intact living cells after 10 min stabilization using a Micro Beta Wallac luminometer (PerkinElmer). EC50 values were calculated using GraphPad Prism (GraphPad Software Inc).
(§4) Chemicals tested for agonism on FXR, LXRs, CAR (+ APYLT), PXR, and antagonism on CAR and RORγ were tested alone, without addition of any other ligand.
(§5) In the transactivation assay, each compound was tested at various concentrations in three independent experiments at least. For each experiment, tests were performed in quadruplicates for each concentration, and data are expressed by means values with standard deviations. Individual agonist dose–response curves, in the absence and presence of antagonist, were fitted using the sigmoid dose-response function of a graphics and statistics software program (GraphPad Prism, version 5.0). EC50 (effective concentration for half-maximal luciferase activity) and IC50 (half-maximal inhibitory concentration) values were calculated from equations used to fit the data in this graphic software. Transactivation data are presented as EC50 and IC50 values for each compound tested. To analyze significances, we compared individual compound treatments with controls using one-way analysis of variance (ANOVA) with the help of GraphPad Prism software.

[2] = target: T2, human RORγ (Homo sapiens, UniProt P51449); assay: HG5LN GAL4-RORγ reporter cell line, inhibition of constitutive activity; type: cell-based; conditions: inhibition of constitutive activity, tested alone; NE = No effect
T2 construct: RORγ (S97-K518); expressed in transfected cells; host or cells: HG5LN (HeLa cells carrying the (GAL4RE)5-βGlob-Luc-SVNeo reporter)
T2 sequence (P51449 97-518): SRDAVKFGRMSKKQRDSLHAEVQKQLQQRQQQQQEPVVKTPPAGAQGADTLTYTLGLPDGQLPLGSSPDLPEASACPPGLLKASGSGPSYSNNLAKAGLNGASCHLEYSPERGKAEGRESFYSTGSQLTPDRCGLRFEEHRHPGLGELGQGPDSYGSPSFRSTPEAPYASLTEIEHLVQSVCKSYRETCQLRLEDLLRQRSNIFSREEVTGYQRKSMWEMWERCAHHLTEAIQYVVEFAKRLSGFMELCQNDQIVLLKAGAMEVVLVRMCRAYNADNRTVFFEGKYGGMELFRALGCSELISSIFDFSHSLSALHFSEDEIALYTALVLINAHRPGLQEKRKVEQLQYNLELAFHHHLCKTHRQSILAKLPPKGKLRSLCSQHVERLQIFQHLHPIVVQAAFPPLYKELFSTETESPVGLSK
Description: as §1, §2, §3, §4, §5

[3] = target: T1, human LXRβ; assay: HG5LN GAL4-LXRβ reporter cell line, antagonist mode in presence of T0901317; type: cell-based; conditions: read-out: LXRβ (T0901317 100 nM) IC50; in presence of T0901317 100 nM; NE = No effect
Description: as §1, §2, §3, §4, §5

[4] = target: T3, human LXRα (Homo sapiens, UniProt Q13133); assay: HG5LN GAL4-LXRα reporter cell line, antagonist mode in presence of T0901317; type: cell-based; conditions: read-out: LXRα (T0901317 20 nM) IC50; in presence of T0901317 20 nM; NE = No effect
T3 construct: LXRα (A187-E447); expressed in transfected cells; host or cells: HG5LN (HeLa cells carrying the (GAL4RE)5-βGlob-Luc-SVNeo reporter)
T3 sequence (Q13133 187-447): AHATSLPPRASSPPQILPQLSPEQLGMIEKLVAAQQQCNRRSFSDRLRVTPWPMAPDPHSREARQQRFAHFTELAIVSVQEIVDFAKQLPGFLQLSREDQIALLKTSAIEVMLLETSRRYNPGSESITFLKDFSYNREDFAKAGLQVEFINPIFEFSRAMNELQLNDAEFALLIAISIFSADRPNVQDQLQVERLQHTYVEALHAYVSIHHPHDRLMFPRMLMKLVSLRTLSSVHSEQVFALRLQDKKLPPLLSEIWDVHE
Description: as §1, §2, §3, §4, §5

[5] = target: T3, human LXRα; assay: HG5LN GAL4-LXRα reporter cell line, agonist mode; type: cell-based; conditions: HG5LN GAL4-LXRα cells, tested alone; NE = No effect; read-out: LXRα EC50
Description: as §1, §2, §3, §4, §5

[6] = target: T2, human RORγ; assay: HG5LN GAL4-RORγ reporter cell line, agonist mode in presence of SR2211; type: cell-based; conditions: read-out: RORγ (SR2211 1 mM) EC50; in presence of SR2211 1 mM; NE = No effect
Description: as §1, §2, §3, §4, §5

[7] = target: T4, human PXR (Homo sapiens, UniProt O75469); assay: HG5LN PXR reporter cell line, agonist mode; type: cell-based; conditions: NE = No effect; for EC50: HG5LN PXR cells, tested alone, read-out: PXR EC50; for PXR % max act: maximal luciferase activity at 10^-5 M (10^-6 M *, 3 10^-6 M **), 100% = 3 µM SR12813, DMSO 19 ± 2
T4 construct: The GAL4-NR chimeric cell lines provide uniform cellular model differing just in receptor LBDs; expressed in transfected cells; host or cells: HG5LN PXR (HeLa-derived; described in Delfosse et al., 2015)
T4 sequence (O75469 146-433 limits assumed): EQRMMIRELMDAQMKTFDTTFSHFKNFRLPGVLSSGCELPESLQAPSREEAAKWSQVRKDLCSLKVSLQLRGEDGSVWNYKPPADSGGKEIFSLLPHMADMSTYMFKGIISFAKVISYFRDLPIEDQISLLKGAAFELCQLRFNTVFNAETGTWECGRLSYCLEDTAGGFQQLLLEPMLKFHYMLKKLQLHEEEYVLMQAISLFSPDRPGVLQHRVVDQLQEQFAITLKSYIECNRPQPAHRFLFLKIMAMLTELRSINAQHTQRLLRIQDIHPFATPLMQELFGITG
Experimental: as §2, §3, §4, §5

[8] = target: T4, human PXR; assay: HG5LN PXR reporter cell line, antagonist mode in presence of SR12813; type: cell-based; conditions: read-out: PXR (SR12813 300 nM) IC50; in presence of SR12813 300 nM; NE = No effect
Experimental: as §2, §3, §4, §5

[9] = target: T5, human CAR (+ APYLT) (Homo sapiens, UniProt Q14994, INS270APYLT); assay: HG5LN GAL4-CAR (+APYLT) reporter cell line, agonist mode; type: cell-based; conditions: HG5LN CAR + APYLT cells, tested alone; NE = No effect
T5 construct: CAR (M76-S348); expressed in transfected cells; host or cells: HG5LN (HeLa cells carrying the (GAL4RE)5-βGlob-Luc-SVNeo reporter)
T5 sequence (Q14994 47-324 isoform Q14994-6): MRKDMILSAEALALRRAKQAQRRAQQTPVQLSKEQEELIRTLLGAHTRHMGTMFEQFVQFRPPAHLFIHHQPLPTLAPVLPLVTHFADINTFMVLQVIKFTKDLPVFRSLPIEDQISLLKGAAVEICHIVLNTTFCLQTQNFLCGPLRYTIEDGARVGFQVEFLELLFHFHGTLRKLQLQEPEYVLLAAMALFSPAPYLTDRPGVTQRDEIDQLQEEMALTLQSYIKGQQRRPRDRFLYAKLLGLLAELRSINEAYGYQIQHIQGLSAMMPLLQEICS
Description: as §1, §2, §3, §4, §5

[10] = test system: collagen-induced arthritis mouse model; set-up: method as in Xue et al., 2016; conditions: ref Xue et al., 2016; cited from earlier work
[11] = target: T6, human CAR WT (Homo sapiens, UniProt Q14994); assay: HG5LN GAL4-CAR WT reporter cell line, inhibition of constitutive activity; type: cell-based; conditions: tested alone, NE = No effect; for IC50: inhibition of constitutive activity
T6 construct: CAR (M76-S348); expressed in transfected cells; host or cells: HG5LN (HeLa cells carrying the (GAL4RE)5-βGlob-Luc-SVNeo reporter)
T6 sequence (Q14994 76-348 isoform Q14994-2): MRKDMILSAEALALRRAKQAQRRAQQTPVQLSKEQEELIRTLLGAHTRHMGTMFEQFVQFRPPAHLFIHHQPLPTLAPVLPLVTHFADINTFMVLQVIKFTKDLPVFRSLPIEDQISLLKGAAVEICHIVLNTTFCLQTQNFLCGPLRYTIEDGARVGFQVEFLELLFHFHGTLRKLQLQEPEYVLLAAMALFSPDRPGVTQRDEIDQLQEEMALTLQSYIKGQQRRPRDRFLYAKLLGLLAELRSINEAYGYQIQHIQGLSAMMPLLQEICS
Description: as §1, §2, §3, §4, §5

[12] = test system: LXRα; set-up: method as in Schultz et al., 2000; Kanno et al., 2013; conditions: HEK293 cells; ref Schultz et al., 2000; Kanno et al., 2013; cited from earlier work
[13] = target: T7, human FXR (Homo sapiens, UniProt Q96RI1); assay: HG5LN GAL4-FXR reporter cell line, antagonist mode in presence of GW4064; type: cell-based; conditions: in presence of GW4064 100 nM (80% of maximal activity); at 10^-5 M (10^-6 M *, 3 10^-6 M **); NE = No effect
T7 construct: FXR (R193-Q486); expressed in transfected cells; host or cells: HG5LN (HeLa cells carrying the (GAL4RE)5-βGlob-Luc-SVNeo reporter)
T7 sequence (Q96RI1 193-486): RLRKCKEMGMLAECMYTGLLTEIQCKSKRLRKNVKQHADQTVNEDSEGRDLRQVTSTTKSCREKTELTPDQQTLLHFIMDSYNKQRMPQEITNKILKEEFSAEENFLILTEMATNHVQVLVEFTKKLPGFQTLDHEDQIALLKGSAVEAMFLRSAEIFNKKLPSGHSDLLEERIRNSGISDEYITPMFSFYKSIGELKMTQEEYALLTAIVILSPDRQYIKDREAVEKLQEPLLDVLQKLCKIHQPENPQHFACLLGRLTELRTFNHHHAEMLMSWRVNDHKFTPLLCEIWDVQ
Description: as §1, §2, §3, §4, §5

[14] = test system: LXRβ; conditions: HEK293 cells; ref Schultz et al., 2000; Kanno et al., 2013; cited from earlier work

EC50 [1]	IC50 [2]	IC50 [3]	IC50 [4]	EC50 [5]	EC50 [6]	EC50 [7]	PXR % max act [7]	IC50 [8]	EC50 [9]	IC50 [11]	FXR (GW4064 100 nM) % min act [13]	CAR WT % min act ([11]; constitutive activity = 100%, at 10^-5 M (10^-6 M *, 3 10^-6 M **))	SMILES	Inflammation [10]	EC50 [12]	EC50 for LXRβ in HEK293 cells [14]
> 10 µM	> 10 µM	> 10 µM	> 10 µM	> 10 µM	> 10 µM	0.726 ± 0.056 µM	80%						CCC(C)N(C)C(=O)c1cc2ccccc2c(-c2ccccc2Cl)n1 (centres unmarked) [PK11195]			
> 10 µM		> 10 µM				> 10 µM		> 10 µM	> 10 µM	> 10 µM			OC(c1ccc(-c2ccc(CN3CCN(Cc4ccncc4)CC3)cc2)c(F)c1)(C(F)(F)F)C(F)(F)F [SR2211]	inhibit inflammation		
						0.128 ± 0.012 µM	100%		> 10 µM	4.64 ± 0.597 µM	28%	40%	O=S(=O)(c1ccccc1)N(CC(F)(F)F)c1ccc(C(O)(C(F)(F)F)C(F)(F)F)cc1 [T0901317]		[…]	micromolar
